In publication PMC6344527, “Toxicity and possible mechanisms of action of honokiol from Magnolia denudata seeds against four mosquito species” (Scientific Reports, 2019):
Values after ≈ are worked out from the molar mass of the structure shown. Where two headings read alike, the source gives them in different places.

Experiments:
[1] = system: midgut and anal gills of third-instar Ae. aegypti larvae; test: transmission electron microscopy analysis of midgut and anal gills; assay type: in vivo, Aedes aegypti; settings: honokiol 6.5 mg/L or magnolol 25 mg/L (LC50), 24 h
Method: At 24 h post-treatment, the midgut and anal gills of the untreated and treated Ae. aegypti larvae were fixed in Karnovsky’s fixative (2% (v/v) glutaraldehyde and 2% (v/v) paraformaldehyde in 0.05 M sodium cacodylate buffer (pH 7.2)) at 4 °C in darkness for 2–4 h and were washed three times with the same buffer. The specimens were post-fixed with 1% (w/v) osmium tetroxide in the same buffer at 4 °C for 2 h and washed with DW three times. The post-fixed specimens were then dehydrated through a graded series of ethanol with increasing concentrations up to 100% for 15 min. The specimens were further treated with propylene oxide twice each for 15 min as a transitional fluid and embedded in Spurr’s resin[77]. Ultrathin sections (approximately 50 nm thickness) were cut with a UC6 ultramicrotome (Leica Microsystems, Wetzlar, Germany) and stained in 2% aqueous uranyl acetate for 7 min at room temperature as well as with Reynolds lead citrate[78] for 7 min. The sections were mounted on copper grids, and micrographs were obtained from a CM120 transmission electron microscope (Philips Electronics, Amsterdam, Netherlands) at 80 kV. Images were captured using a MegaView III digital camera (Olympus-SIS, Lakewood, CO, USA). Observations were taken of 12 larvae via TEM.

[2] = system: third-instar larvae of insecticide-susceptible Culex pipiens pallens; test: contact mortality bioassay, 24 h exposure; assay type: in vivo; settings: for LC50: Culex pipiens, 24 h, read-out: LC50 (mg/L) (95% CI)
Method: (§1) A contact mortality bioassay[25] was used to evaluate the toxicity of all compounds against third-instar larvae of the four mosquito species. Each test compound in methanol was suspended in DW with Triton X-100 (20 µL/L). Groups of 20 mosquito larvae were separately placed into paper cups (270 mL) containing each compound solution (250 mL). […] Negative controls consisted of a methanol–Triton X-100 solution in DW.
(§2) Treated and control (methanol–Triton X-100 solution only) larvae were maintained under the same conditions as those used for colony maintenance without providing food. Larval mortalities were determined 24 h post-treatment. […] All treatments were performed three times using 20 larvae per replicate.
(§3) The concentration of the test compounds required to produce 50% AChE inhibitory activity (IC50) was determined using the SAS 9.13 program (Cary: SAS Institute; 2014). Concentration-mortality data were subjected to probit analysis using the SAS 9.13 program. […] Statistical analyses were performed using the SAS 9.13 program. Multiple linear regression and correlation analysis were performed using the SPSS 24 program (Armonk: IBM Corp.; 2016).

[3] = system: third-instar larvae of insecticide-susceptible Aedes aegypti; test: contact mortality bioassay, 24 h exposure; assay type: in vivo; settings: for LC50: Aedes aegypti, 24 h, read-out: LC50 (mg/L) (95% CI)
Method: as §1, §2, §3

[4] = system: whole-body homogenate from third-instar Aedes aegypti larvae (adenylate cyclase activity); test: determination of cyclic AMP levels (octopamine-sensitive adenylate cyclase activity); assay type: biochemical; settings: 100 μM; compared with control group / octopamine
Method: The method of Perumalsamy et al.[42] was used to assess the in vitro octopamine-sensitive adenylate cyclase activity of the test compounds. In brief, whole bodies of 75 Ae. aegypti larvae (106.2 mg) were homogenized in 500 µL of 2 mM Tris-maleate buffer (pH 7.4) containing 0.8 mM ethylene glycol tetraacetic acid (EGTA). The adenylate cyclase activity was determined using the cAMP Biotrak Enzymeimmunoassay system according to the manufacturer’s protocol. The assay was conducted in a total volume of 100 µL containing 80 mM Tris-maleate buffer, 5 mM theophylline, 2 mM MgSO4, 0.5 mM adenosine triphosphate (ATP), 0.2 mM EGTA, 50 µL of whole-body homogenate (equivalent to 4.12 µg protein), and 1 µL of the test compounds in Tris-maleate buffer containing 0.2% ethanol. After incubation at 20 °C for 5 min, the reaction was initiated by addition of ATP. Incubation was performed at 30 °C for 3 min in a shaking water bath. The reaction was stopped by boiling for 2 min, and then, the assay tube was cooled and centrifuged at 8,000 × g for 10 min. Fifty microliters of the supernatant were assayed for cAMP levels.
Polystyrene microplates (1 strip of 8 wells) coated with a goat anti-mouse polyclonal antibody were used. Fifty microliters of a mouse monoclonal antibody solution were added to each well except for the blank wells (or the nonspecific binding wells). The wells covered with the adhesive strip were incubated at 25 °C for 1 h in a shaking incubator (480 rpm). After washing with 400 µL of wash buffer four times, 50 μL of the two neolignan samples for cAMP determination and cAMP standard were added to wells. Control, blank (nonspecific binding), and zero standard wells were supplemented with 50 μL of a diluent RD5-55 buffer. […] The optical densities at 450 and 540 nm were determined using the microplate reader described above. The readings at 540 nm were subtracted from the readings at 450 nm. The cAMP concentrations are expressed as nmol/µg protein. The results are expressed as the means ± SEs of triplicate samples from three independent experiments.

[5] = system: larvae of four mosquito species (Cx. pipiens pallens, Ae. aegypti, Ae. albopictus, and An. sinensis); test: contact mortality bioassay, range over four mosquito species; assay type: in vivo; settings: 24 h
Method: as §1, §2, §3

[6] = system: third-instar larvae of insecticide-resistant Anopheles sinensis; test: contact mortality bioassay, 24 h exposure; assay type: in vivo; settings: Table 5, larvae resistant to deltamethrin and temephos, 24 h exposure
Method: as §1, §2, §3

[7] = system: third-instar larvae of insecticide-susceptible Aedes albopictus; test: contact mortality bioassay, 24 h exposure; assay type: in vivo
Method: as §1, §2, §3

[8] = set-up: method as in PMID 20877235; settings: cited from earlier work
[9] = Table 6, structure-activity series, 24 h exposure
[10] = Table 7, structure-activity series, 24 h exposure
[11] = Table 2, KS-CP strain, 24 h exposure, listed as Pure honokiol
[12] = Table 3, 24 h exposure, listed as Pure honokiol

In the case of `C=CCc1ccc(O)c(-c2cc(CC=C)ccc2O)c1` [Magnolol, magnolol], the “histopathological effects on anal gills (TEM)” value [1] is reported as “damaged outer membranes of thick cuticles, which led to internal cytoplasmic destruction”, the “histopathological effects on midgut (TEM)” value [1] is reported as “complete disappearance of nuclei as well as cytoplasmic contents” and the LC50 [2, 9] is reported as 26 mg/L (≈ 97.6 µM). For the same molecule, the “LC90 (mg/L) (95% CI)” value [2, 9] was 80.42 (63.28–117.4) mg/L, the LC50 [3, 10] was 25.7 mg/L (≈ 96.5 µM) and the “LC90 (mg/L) (95% CI)” value [3, 10] was 83.14 (64.68–124.4) mg/L. For the same molecule, the cAMP levels [4] was “significantly higher than that induced by the control group”.

With `C=CCc1ccc(O)c(-c2ccc(O)c(CC=C)c2)c1` [Honokiol, 2-(4-hydroxy-3-prop-2-enyl-phenyl)-4-prop-2-enyl-phenol] the “histopathological effects on anal gills (TEM)” value [1] was “cytoplasmic disruption with damaged anal gill cells”, the “histopathological effects on midgut (TEM)” value [1] was “devastated cellular material and extruded masses in the cytoplasm” and the LC50 [5] was 6.13 to 7.37 µg/mL (≈ 23 to 27.7 µM). The LC50 ([2]; Table 2, KS-CP strain, 24 h exposure) was 6.32 mg/L (≈ 23.7 µM), the LC50 [2, 9] was 6.32 mg/L (≈ 23.7 µM) and the “times more toxic than the structural isomer magnolol” value ([2]; Cx. pipiens pallens and Ae. aegypti larvae) was “approximately 4 times”. The “LC90 (mg/L) (95% CI)” value ([2]; Table 2, KS-CP strain, 24 h exposure, listed as Natural honokiol) was 18.78 (15.30–25.99) mg/L, the “LC50 (mg/L) (95% CI)” value [2, 11] was 6.38 (5.01–7.78) mg/L and the “LC90 (mg/L) (95% CI)” value [2, 11] was 19.30 (15.64–27.01) mg/L. For the same molecule, the “LC90 (mg/L) (95% CI)” value [2, 9] was 18.78 (15.30–25.99) mg/L, the “times less toxic than temephos” value ([2]; from 24 h LC50 values) was 390 times and the LC50 ([6]; Anopheles sinensis, read-out: LC50 (mg/L) (95% CI)) was 7.37 mg/L (≈ 27.7 µM). The “LC90 (mg/L) (95% CI)” value [6] was 31.45 (22.90–56.82) mg/L, the “Slope ± SE” value ([6]; probit slope) was 2.0 ± 0.35 and the LC50 ([7]; Aedes albopictus, Table 4, 24 h exposure, read-out: LC50 (mg/L) (95% CI)) was 6.13 mg/L (≈ 23 µM). The “LC90 (mg/L) (95% CI)” value ([7]; Table 4, 24 h exposure) was 16.52 (13.74–21.90) mg/L, the “times less toxic than temephos” value ([7]; from 24 h LC50 values) was 464 times and the “Slope ± SE” value ([7]; probit slope, Table 4, 24 h exposure) was 2.9 ± 0.52. The LC50 ([3]; Table 3, 24 h exposure) was 6.51 mg/L (≈ 24.4 µM), the LC50 [3, 10] was 6.51 mg/L (≈ 24.4 µM) and the “LC90 (mg/L) (95% CI)” value ([3]; Table 3, 24 h exposure, listed as Natural honokiol) was 22.59 (17.70–34.15) mg/L. The “LC50 (mg/L) (95% CI)” value [3, 12] was 6.48 (5.11–7.90) mg/L, the “LC90 (mg/L) (95% CI)” value [3, 12] was 23.84 (18.41–37.36) mg/L and the “times less toxic than temephos” value ([3]; from 24 h LC50 values) was 521 times. For the same molecule, the cAMP levels [4] was “significantly higher than that induced by the control group” and the “toxicity in animal models” value [8] was “no toxicity or serious adverse effects”.
